The values below come from PubChem BioAssay AID1259418 (Broad Institute, 2018).

Where “and” joins values, the source holds several entries; their conditions need not be identical. Equal values may be shown once. Results filed as inconclusive are left out. Calls of active or inactive are those of the source.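 Rule for the calls: active = fitted half-maximal concentration of signal decrease at or below twice the sample's top tested concentration; inconclusive = flat curve between -70 and -30 percent, or poor fit; inactive = flat within 30 percent, signal rise, or potency above limit.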

The assay addresses T. gondii ME49Luc in IFN-y HeLa, luciferase, 72 h. Put plainly: inhibitors of Toxoplasma growth in IFN-γ-primed HeLa – cell-based, ME49Luc, luciferase, 72 h, dose response (AID 1259418).
What is called AC50 is the concentration at which the activity in the assay is half-maximal. Consider `Cc1ccccc1-c1ccc(C2[C@H]3CNC[C@@H]2N3Cc2ccc3c(c2)OCO3)cc1` (some centres undefined), for which the AC50 was > 39 µM (inactive). Under `CC(C)NC(=O)N1CC(=O)N2[C@@H](CO)[C@H](c3ccc(/C=C/c4ccccc4)cc3)[C@@H]2C1` stands 16.8 µM. As for `COc1ccc(-n2nnc3c(N4CCN(C(=O)C(=O)c5c[nH]c6ccccc56)CC4)ncnc32)cc1`, the figure is 20.3 µM. In the case of `COc1ccccc1C(=O)N1CCC2(CC1)Nc1ccc(Cl)cc1-n1cccc12`, the AC50 is 33.9 µM. Consider `COc1ccccc1N(Cc1nc(-c2ccc(C)cc2)oc1C)S(=O)(=O)c1ccc(C)cc1`, for which the AC50 is 10.3 µM.

For the molecule `CCOc1ccccc1-n1c(C(C)N2CCN(C(=O)COc3ccc(Cl)cc3)CC2)nc2ccccc2c1=O` (centres undefined), the AC50 was 7.75 µM. Under `Clc1cncc(OC[C@H]2CO[C@@H]3CN(Cc4cccs4)C[C@@H]23)c1` stands 15.3 µM; under `Cc1ccc(-c2nc(CN3CCN(C(=O)Nc4ccccc4)CC3)c(C)o2)cc1`, 17.5 µM.

With `O=C(CC1N=C2c3ccccc3N=C(SCc3ccccc3Cl)N2C1=O)NCCc1ccccc1` (centres undefined), the AC50 was 15.9 µM. As for `CCOc1ccccc1-c1nc(CN(c2ccc(C)cc2)S(=O)(=O)c2cccs2)c(C)o1`, the figure is 11.2 µM.

`Cc1ccc2[nH]c(C(=O)NCc3cccnc3)c(NC(=O)c3ccc(F)cc3)c2c1`: the AC50 is 27.6 µM. Under `CN(C)CC(=O)N1[C@H](C#N)[C@H](c2ccc(C#CC3CCCCC3)cc2)[C@@H]1CO` stands 14.8 µM. Under `COc1ccc(-c2nc(NCCN3CCC(C)CC3)c3ccccc3n2)cc1` stands 9.97 µM. As to `O=S(=O)(c1cccs1)N1CCC2(CC1)NCCN=C2NCc1cccc(F)c1`, the AC50 was 26.1 µM. As for `COc1ccc(S(=O)(=O)N(Cc2nc(-c3cccc(C)c3)oc2C)c2ccccc2OC)cc1`, the figure is 6 µM; as for `O=C(c1cccc(F)c1)N1CCCCN2[C@H](C1)[C@H](c1ccc(C#CC3(O)CCCC3)cc1)[C@@H]2CO`, 9.01 µM; as for `CN1c2ccc(-c3ccccc3)cc2[C@@H]2[C@@H](CCN2C(=O)CC2CC2)[C@@H]1CO`, 18.5 µM and > 39 µM (inactive).

As to `COc1ccc(C#Cc2ccc([C@H]3[C@@H](CO)N4C(=O)CN(C(=O)NC(C)C)C[C@@H]34)cc2)cc1`, the half-maximal activity concentration (AC50) was 22.3 µM. Regarding `C=CCN1CCC2(CC1)CC(NCc1ccc(C)s1)c1ccccc1O2` (centres undefined), the AC50 is 12.1 µM. `Cc1ccc(CSC2=Nc3ccccc3C3=NC(CCC(=O)NCCc4ccccc4)C(=O)N23)cc1` (centres undefined): the AC50 was 30.8 µM. Under `COc1cccc(-c2nc3c(s2)CN(S(=O)(=O)c2ccc(C)cc2)CC3)c1` stands 25.9 µM; under `COc1ccc(C#Cc2ccc([C@@H]3[C@H]4CN(C(=O)NC(C)C)CC(=O)N4[C@H]3CO)cc2)cc1`, 9.33 µM and 7.45 µM; under `O=C(NCCc1csc(-c2ccccc2)n1)C1CCN(C(=O)c2ccco2)CC1`, > 39 µM (inactive). As for `Cc1cccc(-c2nc(CN(c3ccccc3)S(=O)(=O)c3ccccc3)c(C)o2)c1`, the AC50 was 5.9 µM and 16.3 µM. As for `Cc1ccccc1Cn1c(CN2CCC(C(=O)NCCCN3CCCC3=O)CC2)cc2ccccc21`, the figure is > 39 µM (inactive); as for `CCc1c2c(nc3ccc(OC(=O)N4CCC(N5CCCCC5)CC4)cc13)-c1cc3c(c(=O)n1C2)COC(=O)[C@]3(O)CC`, 21 µM. Under `COc1ccc(-c2nc(CSc3nc4c(c(=O)[nH]3)CN(Cc3ccc(F)cc3)CC4)c(C)o2)cc1` stands 23.2 µM.

As for `COc1ccccc1Cn1ncc2c1CCCC2NC(=O)c1cc(-c2cccs2)no1` (centres undefined), the AC50 was 14.1 µM.

On to `COc1cccc(CNC2=NCCNC23CCN(S(=O)(=O)c2cc(C)c(C)cc2C)CC3)c1`, for which the AC50 is 9.29 µM.

In the case of `CCc1ccccc1S(=O)(=O)N1CCC(C(=O)NCCc2csc(-c3ccccc3)n2)CC1`, the AC50 was 17.5 µM. With `Cc1ccc(C(=O)Nc2c(C(=O)NCc3cccnc3)[nH]c3ccccc23)cc1`, the AC50 is > 39 µM (inactive). Under `COc1ccc(Cc2cnc(N)nc2N)cc1OC` stands 23.2 µM; under `O=C(Nc1c(C(=O)NCc2cccnc2)[nH]c2ccccc12)c1ccc(Cl)cc1`, 21.2 µM; under `CC(=O)NCc1nnn2c1CN(c1ncccn1)CCC2`, 10.9 µM. Regarding `Cc1cc(C(=O)N2CCC(c3cc4c(ncn4C)c(NCC4CC4)n3)CC2)ccc1Cl`, the AC50 was 23.1 µM. With `CCOc1ccccc1N(Cc1nc(-c2ccccc2)oc1C)S(=O)(=O)c1cccs1`, the AC50 is 7.76 µM. Under `CCc1cnc(N2[C@@H](C#N)[C@@H](c3ccc(C#Cc4ccccc4F)cc3)[C@@H]2CO)s1` stands 17.2 µM; under `Cc1cccc(NC(=O)c2cc(-c3cnc(N4CCOCC4)nc3)cn2CC2CC2)c1`, 22.2 µM; under `Cc1ccccc1S(=O)(=O)N1CC[C@H]2[C@H](CO)Nc3ccc(-c4ccc(F)cc4)cc3[C@H]21`, 28.5 µM. Regarding `O=C(Nc1cccc(F)c1)N1CCCCN2[C@H](CO)[C@H](c3ccc(C#Cc4cccnc4)cc3)[C@@H]2C1`, the AC50 was 2.07 µM and 1.05 µM.

As to `Cc1ccc(NC(=O)N2CCN(Cc3nc(-c4cccc(Cl)c4)oc3C)CC2)cc1Cl`, the AC50 is 15.7 µM. Under `COc1cccc(CN2CCC3(COCc4cnc(-c5ccccc5)nc43)C2)c1` (centres undefined) stands 17.4 µM; under `COc1ccc(CNC2=NCCNC23CCN(S(=O)(=O)c2ccc(Cl)s2)CC3)cc1`, 3.91 µM. As for `Cc1ccc(S(=O)(=O)N2CCC3(CC2)NCCN=C3NCc2cc(F)cc(F)c2)cc1C`, the figure is 30.1 µM; as for `O=S(=O)(c1ccc2c(c1)CCCC2)N1CCC2(CC1)NCCN=C2NCc1ccc(F)cc1`, 9.4 µM. Under `COc1ccc(-c2nc(C)c(-c3ccc(SCc4cc(C)ccc4C)nn3)s2)cc1` stands > 39 µM (inactive); under `C[C@H](CO)N1C[C@H](C)[C@H](CN(C)Cc2ccc(Cl)c(Cl)c2)Oc2c(NS(=O)(=O)c3ccc(F)cc3)cccc2C1=O`, 20.9 µM. For the molecule `COCC1CN(C(=O)c2ccccc2F)Cc2cnn(CC3CC3)c21` (centres undefined), the AC50 is 35.8 µM. Regarding `O=C(CC1N=C2c3ccccc3N=C(SCc3ccccc3F)N2C1=O)NCCc1ccccc1` (centres undefined), the AC50 was > 39 µM (inactive). Take `CCN(CCCNC(=O)CC1Nc2c3ccccc3nc(=S)n2C1=O)c1ccccc1` (centres undefined): the AC50 was > 39 µM (inactive). With `O=C(C[C@H]1CC[C@H]2[C@@H](COC[C@H](O)CN2S(=O)(=O)c2ccccc2)O1)NCC1CCCCC1`, the AC50 was 20.8 µM.

In the case of `Cc1ccccc1-c1ccc(C2[C@@H]3CN(C(=O)c4ccc(F)cc4)C[C@H]2N3)cc1` (some centres undefined), the AC50 is 19 µM. Under `COc1ccc(N(Cc2nc(-c3ccc(C)cc3)oc2C)S(=O)(=O)c2ccccc2C)cc1` stands 31.9 µM. `Fc1cccnc1OC1COC2(CCN(Cc3ccsc3)CC2)C1` (centres undefined): the AC50 is 24.8 µM. Under `OC[C@H]1N[C@@H](CNCC2CCC2)[C@@H]1c1ccc(C2=CCCCC2)cc1` stands 12.4 µM and 20.4 µM. For `COc1ccc(CNC2=NCCNC23CCN(S(=O)(=O)c2ccc(CC(C)C)cc2)CC3)cc1`, the concentration at half-maximal activity (AC50) is 6.46 µM.

Regarding `O=C(CC1N=C2c3ccccc3N=C(SCc3ccc(F)cc3)N2C1=O)NCc1ccco1` (centres undefined), the half-maximal activity concentration (AC50) was 20.5 µM. Under `CN(C)C(=O)c1ccc(-c2ccc3c(c2)[C@@H]2[C@@H](CCN2C(=O)C2CCCC2)[C@@H](CO)N3C)cc1` stands 21.1 µM.

Consider `COc1ccccc1-c1nc(C)c(-c2ccc(SCc3ccccc3Cl)nn2)s1`, for which the AC50 is > 39 µM (inactive). As for `COc1cccc(-c2nc(C)c(-c3ccc(SCc4ccc(Cl)cc4)nn3)s2)c1`, the figure is 8.76 µM; as for `Cn1cc(-c2cnc(Nc3ccccc3)nc2)cc1C(=O)Nc1cccc(O)c1`, 23.6 µM; as for `O=C(CCCCCNc1nc(=S)[nH]c2ccccc12)N1CCC(O)(c2cccc(C(F)(F)F)c2)CC1`, > 39 µM (inactive). As for `OC[C@H]1[C@H](c2ccc(C#Cc3ccccc3F)cc2)[C@@H]2CN(CC3CCOCC3)CCCCN12`, the figure is 9.56 µM. For the molecule `O=S(=O)(c1ccc2c(c1)CCCC2)N1CCC2(CC1)NCCN=C2NCc1ccc(Cl)cc1`, the AC50 was 9.16 µM. Under `COc1ccc(-c2nc(NCCN(C)C3CCCCC3)c3ccccc3n2)cc1` stands 3.36 µM; under `COCC(=O)Nc1ccc(-c2nc(-c3cc(C)ccc3C)co2)cc1`, > 39 µM (inactive); under `COc1ccccc1C#Cc1ccc([C@H]2[C@@H](CO)N3CCCCN(C(=O)C4CCC4)C[C@@H]23)cc1`, 18.8 µM.

With `COc1ccc(-c2nc3c(s2)CN(C(=O)Nc2cccc(C)c2)CC3)cc1OC`, the AC50 is > 39 µM (inactive).

Turning to `C/C=C/c1ccc(C2[C@H]3CNC[C@@H]2N3C(=O)NC2CCCCC2)cc1` (some centres undefined), the half-maximal activity concentration (AC50) is 9.23 µM and 7.74 µM. Turning to `C[C@H](CO)N1C[C@H](C)[C@H](CN(C)C(=O)Nc2ccc(C(F)(F)F)cc2)Oc2c(NC(=O)c3ccc(-c4nccs4)cc3)cccc2C1=O`, the AC50 is 18 µM. On to `Cc1ccc(C)c(S(=O)(=O)N2CCC3(CC2)NCCN=C3NCc2ccccc2Cl)c1`, for which the half-maximal activity concentration (AC50) was 5.36 µM. `Cc1cccc(S(=O)(=O)N2CCc3nc(-c4cnn(C)c4)nc(NC4CC4)c3C2)c1`: the AC50 is 19 µM. Regarding `Cc1ccc(C(=O)Nc2ccc3c(c2)CCC(=O)N3)s1`, the AC50 is 11.6 µM. Turning to `COCCCNc1ncnc2c1cnn2-c1cccc(C)c1`, the AC50 is 14.6 µM. Consider `COc1cccc(NC(=O)N2CCN(Cc3nc(-c4ccc(C)cc4)oc3C)CC2)c1`, for which the concentration at half-maximal activity (AC50) is 22 µM. As for `CCN1CCCC1CNC(=O)C1CCN(Cc2cc3ccccc3n2Cc2cccc(C)c2)CC1` (centres undefined), the figure is 25.5 µM. Under `O=C(c1ccc(F)cc1)N1CC(=O)N2[C@H](C1)[C@@H](c1ccc(C#CCC3CCCC3)cc1)[C@@H]2CO` stands 20.4 µM and 10.1 µM. For the molecule `COc1ccccc1C(=O)Nc1ccc(-c2nc(-c3ccc(C)cc3)co2)cc1`, the AC50 was 19.1 µM. Under `O=C(CC1N=C2c3ccccc3N=C(SCc3ccc(F)cc3)N2C1=O)NCCc1ccccc1` (centres undefined) stands 4.59 µM. On to `O=C1CCc2cc(S(=O)(=O)N3CCc4ccccc4C3)cc3c2N1CCC3`, for which the AC50 is 31.1 µM. On to `CCN1CCCC1CNc1nc(-c2ccc(OC)cc2)nc2ccccc12` (centres undefined), for which the AC50 was 15.1 µM. For the molecule `CS(=O)(=O)N1CCc2sc(C(=O)Nc3ccc(Cl)cc3)cc21`, the AC50 was 3.36 µM. As for `COc1cccc(-c2ccc(C3[C@@H]4CN(S(=O)(=O)Cc5ccccc5)C[C@H]3N4)cc2)c1` (some centres undefined), the figure is 12.3 µM and 15.7 µM. Under `CCOc1ccc(N(Cc2nc(-c3ccccc3)oc2C)S(=O)(=O)c2ccccc2)cc1` stands 7.95 µM.
